Experimental data reported in patent US20080227748A1, “Medicament Made From Laminarine or Oligolaminarines For Treatment of Septicemia and Septic Shock” (LABORATOIRES GOEMAR, priority 2005, published 2008).

Experiment: Feeding treatment with Dectinan-enriched diet before injection of LPS (weight, consumption, glycemia, triglyceridemia, feces)
Parameters: species or system male Wistar Han rats
Conditions: rat, in vivo
Protocol: The animals selected for the abovesaid studies were male Wistar Han rats (Harlem, Netherlands).
The experiments were carried out on two groups of eight rats each.
The rats of one of the two groups—“control group”—had available to them “ad libitum” a standard feed with the AO4 trade name (UAR, France); the rats of the other group had available to them the same feed but supplemented with the above said laminarin, sold under the “Dectinan” trade name; in a first phase and for four days (−4 to −1), the feed was enriched with 5% by weight of Dectinan and then with 10% by weight in a second phase of 21 days (days 0 to 21); this second group of rats is denoted by “Dectinan group”.
The days on which the various withdrawals and measurements are made are identified in table I below.
a) Before injection of LPS • bodyweight • weight of wet feces and feces after freeze drying (collected over 24 h) • weight of the diet and of the drinking water • taking of blood from the caudal vein: quantitative determination of triglycerides and glucose
In this regard, the values mentioned later represent the mean ±SDM (Standard Deviation of the Mean). […]

- Total consumption of drinking water: 611.5 ± 17.9 mL
- Total consumption of feed: 431.5 ± 6.0 g
Substance: laminarin [Dectinan®]
